Experimental data from article PMC7247319, “The mitochondria-targeted peptide SS-31 binds lipid bilayers and modulates surface electrostatics as a key component of its mechanism of action” (The Journal of Biological Chemistry, 2020).
Where a SMILES comes first, the peptide text is derived from it. [ ]: non-standard residue; d: D form. Dmt = Cc1cc(O)cc(C)c1C[C@H](N)C(=O)O

Test system: isolated mitochondria
Test: 31P ssNMR of mitochondrial membrane integrity under calcium stress
Set-up: species or system S. cerevisiae
Description: Figure 7. SS peptide effects on Ca^2+-membrane interactions and mitochondrial cation stress. A, profiles of surface potential decay (top) and ion distribution (bottom) based on GCS theory in the presence or absence of SS-31 (see supporting Results H for model description). B, effect of SS peptides on Ca^2+ accumulation at model membrane interfaces. Time course measurements of CG-5N emission were performed in solutions with LUVs (20 mol % TOCL in host POPC background, [lipid]^eff = 100 μM) prebound with SS peptide at the indicated concentration followed by titration of CaCl2 in increments of 1 nmol at 20-s intervals starting at t = 60 s. C and D, effect of SS peptides on mitochondrial Ca^2+ uptake. […] Spectral deconvolution yielded the indicated components (see Fig. S19, A and B), which were used to quantify the area ratios of L2/iso in F (values shown are means ± S.D. (error bars) (n = 3). G, respirometry analysis. Mitochondria (1 mg ml^−1) were treated in the absence or presence of SS-31 (54.4 μM) or CaCl2 (1 mM) as indicated and measured for state 2 respiration (n = 10–12 each).
Finally, we measured the effects of SS peptides on mitochondrial calcium stress that may occur independently of Ca^2+ uptake into the matrix. […] To corroborate these findings, we measured mitochondrial oxygen consumption rates under similar conditions of SS peptide treatment and calcium stress. […]

**Q.** Which results are given for `Cc1cc(O)cc(C)c1C[C@H](NC(=O)[C@H](N)CCCNC(=N)N)C(=O)N[C@@H](CCCCN)C(=O)N[C@@H](Cc1ccccc1)C(N)=O` [SS-31, D-Arg-2′6′-dimethyl-Tyr-Lys-Phe-NH2] (H-[dR][Dmt]KF-NH2)?
**A.** effect on NMR-detected membrane degradation caused by high calcium load (acute treatment 8.5 nmol of peptide/mg of mitochondrial protein (0.6 mM, 70 mg ml^−1), up to 5 mM CaCl2, 4 °C): reduced NMR-detected membrane degradation; effect on L2 peak (lamellar phospholipid bilayers), L2/iso area ratio (spectral deconvolution, 5 mM CaCl2, n = 3): significant preservation of the L2 peak
